Assays:
[1] = tested on: Bacillus thuringiensis ATCC55055; Bacillus subtilis 1270; test: Agar diffusion test, clear zones of growth inhibition around wells; format: cell-based; conditions: Phloxine B 100 μg/ml; 50 μl per well; 37° C., 16 hours
Procedure: Sensitivity of bacteria to the commercially available Phloxine B measured by agar diffusion test. Principle of this microbiological assay: The bacteria were grown on Brain Heart Infusion (BHI) broth. Growth was analyzed by measuring turbidity with a spectrophotometer. During the logarithmic phase (OD of 0 3 at 600 nm), 200 μl of the bacterial culture was spread over the surface of an agar plate with a bent glass rod. Fifty μl of various concentrations of Phloxine B (200, 100, 50, 25, and 12.5 μg/ml diluted in the BHI broth) were added to the wells. The plate was then transferred to an incubator at 37° C. the appearance of clear zones around the wells after 16 hours, indicating inhibition of bacterial growth, was noted.

[2] = tested on: B. mycoides, B. thuringiensis, and B. subtilis; format: cell-based
[3] = humans; set by the FDA; cited from earlier work

2′,4′,5′,7′-tetrachlorofluorecein disodium salt [Phloxine B]
size of clear zones compared with chloramphenicol [1]: half the inhibition zones observed with chloramphenicol at 200 μg/ml | reduction of the number of Colony-Forming Units ([2]; 100 μg/ml, printed also as factor of 100): more than two logs | inhibition of bacterial growth ([2]; 100, 75, 50, 25 μg/ml added in logarithmic growth phase, BHI broth): dose-dependent manner | antibiotic activity on bacteria ([2]; B. mycoides, B. thuringiensis, B. subtilis): very good antibiotic activity | decrease of bacterial count ([2]; dye added at 100 μg/ml, in minutes): 3 logs | acceptable daily intake (ADI) [3]: 1.25 mg/kg

Reference: US20020165267A1 (priority 2001, published 2002)
